What was measured:
[1] = test system: anesthesia/surgery-induced delirium-like behavior in mice; test: Buried Food Test after anesthesia/surgery; format: in vivo
Excerpt: (§1) Mice Anesthesia and Surgery. 18-month-old C57BL/J6 female mice were adaptive in lab for 3 days. The mice were randomly assigned to the anesthesia/surgery group or control group by weight. […] Specifically, we anesthetized each of the mice using 1.4% isoflurane in 100% oxygen in a transparent acrylic chamber. Fifteen minutes after the induction, we moved the mouse out of the chamber. Isoflurane anesthesia was maintained via a cone device, and one 16-gauge needle was inserted into the cone near the nose of the mouse to monitor the concentration of isoflurane. We made a longitudinal midline incision from the xiphoid to the 0.5 centimeter proximal pubic symphysis on the skin, abdominal muscles and peritoneum. We then sutured the incision layer by layer with 5-0 Vicryl thread.
(§2) WS635 Treatment. WS635 was dissolved in corn oil with 10% DMSO, each of the mice will be injected with WS635 solution in the dose of 40 mg/kg for 0.2 ml through IP at 30 minutes before control condition or anesthesia/surgery by using 27G×½ needles. The mice in control group received 0.2 ml of corn oil with 10% DMSO.
(§3) Behaviors Tests. […] We will perform the behavior tests in groups of 3 mice and finished them within 50 minutes, which mimics the certain features of clinical evaluation of delirium in patients.
Buried Food Test. Specifically, two days before the test, we will give each mouse 2 pieces of the sweetened cereal. […]

[2] = test system: anesthesia/surgery-induced delirium-like behavior in mice; test: delirium-like behaviors overall (composite Z score) after anesthesia/surgery; format: in vivo
Excerpt: as §1, §2
Behaviors Tests. […] We will perform the behavior tests in groups of 3 mice and finished them within 50 minutes, which mimics the certain features of clinical evaluation of delirium in patients. […]

calcineurin = conditions: at concentrations up to 2 μM; cited from earlier work
[3] = test system: hepatitis C virus (HCV) replication; conditions: in vitro; cited from earlier work
hepatitis C virus (HCV) = conditions: two-drug combination, in vitro; cited from earlier work
[4] = test system: stimulated human peripheral blood mononuclear cells; conditions: compared with cyclosporine; cited from earlier work
[5] = test system: anesthesia/surgery-induced cognitive impairment in mice; test: anesthesia/surgery-induced cognitive impairment in mice; format: in vivo; conditions: 1.4% isoflurane and abdominal surgery
Excerpt: as §1
Mice Anesthesia for isoflurane-induced cognitive impairment experiment. 8 month-old C57BL/6J mice. Anesthesia: 1.4% isoflurane for two hours.
WS635 Treatment for isoflurane-induced cognitive impairment experiment. WS635 was dissolved in 10% DMSO plus corn oil. Each mouse received 26.4 mg/kg WS635 or same volume of vehicle (10% DMSO plus corn oil) at 30 minutes before the anesthesia. Then, the mice were tested in Fear Conditioning System at 48 hours and 7 days after the anesthesia.
WS635 Treatment. […]

stimulated Jurkat cells = conditions: compared with cyclosporine; cited from earlier work
P-glycoprotein = P-glycoprotein (Homo sapiens, UniProt P08183); conditions: cited from earlier work
[6] = cited from earlier work
cytochrome P450 3A4 = conditions: metabolic studies; cited from earlier work
cytochrome P450 1A2 = conditions: metabolic studies; cited from earlier work
cyclophilin A = cyclophilin A (Homo sapiens, UniProt P62937); conditions: cited from earlier work
[7] = test system: anesthesia/surgery-induced delirium-like behavior in mice; test: Open Field Test after anesthesia/surgery; format: in vivo; conditions: 40 mg/kg IP 30 minutes before anesthesia/surgery
Excerpt: as §1, §2, §3
Open Field Test. Specifically, the mouse will be gently placed in the center of an open field chamber (40×40×40 centimeters) under dim light and will be allowed to move freely for 5 minutes. The movement parameters of the mouse will be monitored and analyzed via a video camera connected to the Any-Maze animal tracking system software (Stoelting Co., Wood Dale, IL). The total distance moved (meters), the time (seconds) spent in the center of the open field, the freezing time (seconds) and the latency (the time in seconds for the mice to reach to the location at the first attempt) to the center of the open field will be recorded and analyzed. The floor of the open field will be cleaned with 70% ethanol solution between each test. […]

[8] = test system: anesthesia/surgery-induced delirium-like behavior in mice; test: Y Maze Test after anesthesia/surgery; format: in vivo; conditions: 40 mg/kg IP 30 minutes before anesthesia/surgery
Excerpt: as §1, §2, §3
Y Maze Test. Specifically, the Y maze, made of gray polyvinylene, will be placed in a quiet and illuminated room. […]

cytochrome P450 2B6 = conditions: metabolic studies; cited from earlier work

P-glycoprotein, sequence (P08183 whole entry): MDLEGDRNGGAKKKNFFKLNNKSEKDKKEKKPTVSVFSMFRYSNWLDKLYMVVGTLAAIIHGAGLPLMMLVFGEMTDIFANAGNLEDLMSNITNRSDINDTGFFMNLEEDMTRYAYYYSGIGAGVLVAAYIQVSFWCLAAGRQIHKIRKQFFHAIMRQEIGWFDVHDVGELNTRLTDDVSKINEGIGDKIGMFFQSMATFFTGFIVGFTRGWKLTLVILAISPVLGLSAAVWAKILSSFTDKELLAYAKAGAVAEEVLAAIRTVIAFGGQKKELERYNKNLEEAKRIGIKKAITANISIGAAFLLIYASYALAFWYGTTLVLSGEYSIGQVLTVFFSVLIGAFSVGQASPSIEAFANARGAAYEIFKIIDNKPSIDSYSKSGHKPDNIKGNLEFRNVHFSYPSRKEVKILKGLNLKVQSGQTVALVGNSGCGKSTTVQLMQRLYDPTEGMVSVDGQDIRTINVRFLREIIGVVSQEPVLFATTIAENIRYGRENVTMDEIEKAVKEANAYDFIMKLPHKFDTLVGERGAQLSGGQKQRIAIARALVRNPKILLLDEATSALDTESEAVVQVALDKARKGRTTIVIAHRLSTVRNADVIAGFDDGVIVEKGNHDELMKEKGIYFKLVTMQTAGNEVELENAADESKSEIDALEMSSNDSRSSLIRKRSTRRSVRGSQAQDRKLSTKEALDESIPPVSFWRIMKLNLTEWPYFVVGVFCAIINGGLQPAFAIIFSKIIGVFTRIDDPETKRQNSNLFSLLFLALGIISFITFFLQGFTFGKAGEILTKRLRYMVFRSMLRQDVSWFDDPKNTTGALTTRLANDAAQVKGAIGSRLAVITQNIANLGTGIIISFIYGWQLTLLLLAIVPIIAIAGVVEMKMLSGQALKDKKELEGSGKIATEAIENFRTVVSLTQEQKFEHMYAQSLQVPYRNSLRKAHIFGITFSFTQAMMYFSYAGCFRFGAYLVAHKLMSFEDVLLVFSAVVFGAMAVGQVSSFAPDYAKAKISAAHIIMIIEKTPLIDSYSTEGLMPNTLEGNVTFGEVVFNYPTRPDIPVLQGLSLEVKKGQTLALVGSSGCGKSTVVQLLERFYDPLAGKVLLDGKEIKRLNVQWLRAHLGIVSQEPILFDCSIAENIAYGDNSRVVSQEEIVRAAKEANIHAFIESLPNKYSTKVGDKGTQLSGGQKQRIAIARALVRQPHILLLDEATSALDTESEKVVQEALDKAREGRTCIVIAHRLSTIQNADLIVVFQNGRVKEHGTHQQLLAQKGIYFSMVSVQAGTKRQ
cyclophilin A, sequence (P62937 whole entry, species assumed): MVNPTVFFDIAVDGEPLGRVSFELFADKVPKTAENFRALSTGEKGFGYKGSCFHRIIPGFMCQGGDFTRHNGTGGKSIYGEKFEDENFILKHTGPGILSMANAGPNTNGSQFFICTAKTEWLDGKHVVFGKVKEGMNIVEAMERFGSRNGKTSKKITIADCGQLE

**Q.** Which “anesthesia/surgery-induced increase of latency to eat food in the buried food test” value ([1]; 40 mg/kg IP 30 minutes before anesthesia/surgery, 18-month-old C57BL/J6 female mice) does the source give for `C/C=C/C[C@@H](C)[C@@H](O)[C@H]1C(=O)N[C@@H](CC)C(=O)N(C)[C@H](SCCN(C)C)C(=O)N(C)[C@@H](CC(C)(C)O)C(=O)N[C@@H](C(C)C)C(=O)N(C)[C@@H](CC(C)C)C(=O)N[C@@H](C)C(=O)N[C@H](C)C(=O)N(C)[C@@H](CC(C)C)C(=O)N(C)[C@@H](CC(C)C)C(=O)N(C)[C@@H](C(C)C)C(=O)N1C` [WS635, (3 S,6 S,9S,12R,15 S,18 S,21 S,24S,27R,30S,33 S)-27-((2-(dimethylamino)ethyl)thio)-30-ethyl-33-((1R,2R,E)-1-hydroxy-2-methylhex-4-en-1-yl)-24-(2-hydroxy-2-methy 1propyl)-6,9,18-tri isobutyl-3,21-diisopropyl-1,4,7,10,12,15,19,25,28-nonamethyl-1,4,7,10,13,16,19,22,25,28,3 1-undecaazacyclotritriacontan-2,5,8,11,14,17,20,23,26,29,32-undecaone] here?
**A.** Its value is “can attenuate”.

**Q.** What about the “anesthesia/surgery-induced changes in Buried Food Test, dose dependence” value ([1]; mice) of the same compound?
**A.** The value was “dose-dependent manner”.

**Q.** And the “anesthesia/surgery-induced changes of delirium-like behaviors” value ([2]; 40 mg/kg)?
**A.** The value was “more effectively attenuate”.

**Q.** And the “anesthesia/surgery-induced delirium-like behavior (composite Z score)” value ([2]; FIG. 15)?
**A.** Its value is “able to attenuate”.

**Q.** What about the “inhibition of calcineurin phosphatase activity” value (calcineurin) of the same compound?
**A.** Its value is “no detectable inhibition”.

**Q.** What about the “suppression of hepatitis C virus (HCV) replication” value [3] of the same compound?
**A.** Its value is “potent suppression”.

**Q.** And the “antiviral activity in combination with alpha interferon 2b” value (hepatitis C virus (HCV))?
**A.** Its value is “synergistic antiviral activity”.

**Q.** What about the “antiviral activity in combination with ribavirin” value (hepatitis C virus (HCV)) of the same compound?
**A.** The value was “additive antiviral activity”.

**Q.** And the “inhibition of interleukin-2 secretion” value [4]?
**A.** The value was “weaker inhibitor of interleukin-2 secretion than cyclosporine”.

**Q.** What about the anesthesia/surgery-induced cognitive impairment [5] of the same compound?
**A.** Its anesthesia/surgery-induced cognitive impairment is “significantly attenuate”.

**Q.** And the “inhibition of interleukin-2 secretion” value (stimulated Jurkat cells)?
**A.** Its value is “weaker inhibitor of interleukin-2 secretion than cyclosporine”.

**Q.** What about the P-glycoprotein inhibition (P-glycoprotein) of the same compound?
**A.** Its P-glycoprotein inhibition is “weak inhibitor”.

**Q.** What about the P-glycoprotein substrate (P-glycoprotein) of the same compound?
**A.** The P-glycoprotein substrate was “poor substrate”.

**Q.** And the “blood and liver concentrations of parent drug versus 50% effective dose in replicon assay” value ([6]; in vivo, po)?
**A.** Its value is “exceeded the 50% effective dose”.

**Q.** What about the oral bioavailability ([6]; multiple animal species) of the same compound?
**A.** Its oral bioavailability is “orally bioavailable”.

**Q.** What about the “induction of cytochrome P450 3A4” value (cytochrome P450 3A4) of the same compound?
**A.** The value was “did not induce”.

**Q.** What about the “induction of cytochrome P450 1A2” value (cytochrome P450 1A2) of the same compound?
**A.** Its value is “did not induce”.

**Q.** And the “inhibition of the peptidyl prolyl isomerase activity of cyclophilin A” value (cyclophilin A)?
**A.** Its value is “nanomolar concentrations”.

**Q.** And the “anesthesia/surgery-induced change of freezing time in the open field test” value [7]?
**A.** Its value is “can attenuate”.

**Q.** And the “anesthesia/surgery-induced decrease of time spent in the center of the open field” value [7]?
**A.** The value was “can attenuate”.

**Q.** What about the “anesthesia/surgery-induced increase of latency to the center in the open field test” value [7] of the same compound?
**A.** The value was “can attenuate”.

**Q.** And the “anesthesia/surgery-induced decrease of duration in the novel arm in the Y maze test” value [8]?
**A.** The value was “can attenuate”.

**Q.** And the “anesthesia/surgery-induced decrease of number of entries in the novel arm in the Y maze test” value [8]?
**A.** The value was “can attenuate”.

**Q.** And the “induction of cytochrome P450 2B6” value (cytochrome P450 2B6)?
**A.** The value was “did not induce”.

Reference: patent publication US20240016884A1, “WS635 USES THEREOF IN MEDICINE” (WATERSTONE PHARMACEUTICALS (WUHAN) CO., LTD., priority 2021, published 2024)
